{"source": "patent US12584906B2", "about": "“Coating agent for inducing differentiation of pluripotent stem cells into brain microvascular endothelium-like cells and use thereof” (PUBLIC UNIVERSITY CORPORATION NAGOYA CITY UNIVERSITY, priority 2020, dated 2026)", "key": {"[1]": {"test_system": "iBMECs derived from 610B1 strain", "assay": "Relative TEER values of iBMECs induced and differentiated on each coating layer (day 10 of differentiation)", "assay_type": "cell-based, human", "details": "for TEER value compared with iBMECs induced and differentiated on Matrigel: coating 1 μg/cm^2, FIG. 2", "protocol": "A coating layer was formed using each of the above-described coating agents. Matrigel was diluted 30-fold with a maintenance medium for human iPS cells on ice, poured onto a well plate, and allowed to stand at 37° C. for 30 minutes or longer to form a coating layer. FBN, VTN-N, LN221F, LN411F, or LN511F was diluted with PBS so as to be 1 μg/cm^2, poured onto a well plate, and allowed to stand at 37° C. for 1 hour to 2 hours to form a coating layer. In addition, a mixture of Fibronectin and Collagen type IV was diluted with PBS so as to be 100 μg/mL and 400 μg/mL, respectively, poured onto a Transwell insert, and allowed to stand at 37° C. for 2 hours or longer to form a coating layer.\nFIG. 1 is a scheme illustrating a protocol for differentiating human iPS cells into iBMECs. […] The differentiation induction was started in a state in which at the time of passage, the cells were seeded on a culture dish coated with each coating agent and cultured in StemSure hPSC medium containing […] FGF2 until the proportion of undifferentiated colonies reached about 60 to 70% (day 0 of differentiation). […]\nTEER values of iBMECs (on day 10 of differentiation) derived from 610B1 strain, which cells had been induced and differentiated on Matrigel or FBN, VTN-N, LN221F, LN411F, or LN511F, were measured. The number of samples was 3, and relative TEER values of iBMECs induced and differentiated on FBN, VTN-N, LN221F, LN411F, or LN511F were determined based on the TEER values of iBMECs induced and differentiated on Matrigel (hereinafter, also referred to as “Matrigel-iBMECs”). In addition, for each of 610B1 strain or 648A1 strain, the TEER values of Matrigel-iBMECs or iBMECs induced and differentiated on LN221F (hereinafter, also referred to as “LN221F-iBMECs”) were measured from day 1 after seeding (day 9 of differentiation) to day 10 after seeding (day 18 of differentiation). The number of samples was set to 6, and the time-course change of the TEER values was determined. The TEER values were measured using a Millicell ERS-2 (chopstick type) according to the attached instructions. […]"}, "[2]": {"test_system": "iBMECs derived from 610B1 strain", "assay": "Time-course change in TEER values, 610B1 strain", "assay_type": "cell-based, human", "details": "FIG. 3", "protocol": "(§1) A coating layer was formed using each of the above-described coating agents. Matrigel was diluted 30-fold with a maintenance medium for human iPS cells on ice, poured onto a well plate, and allowed to stand at 37° C. for 30 minutes or longer to form a coating layer. FBN, VTN-N, LN221F, LN411F, or LN511F was diluted with PBS so as to be 1 μg/cm^2, poured onto a well plate, and allowed to stand at 37° C. for 1 hour to 2 hours to form a coating layer. In addition, a mixture of Fibronectin and Collagen type IV was diluted with PBS so as to be 100 μg/mL and 400 μg/mL, respectively, poured onto a Transwell insert, and allowed to stand at 37° C. for 2 hours or longer to form a coating layer. […]\n(§2) TEER values of iBMECs (on day 10 of differentiation) derived from 610B1 strain, which cells had been induced and differentiated on Matrigel or FBN, VTN-N, LN221F, LN411F, or LN511F, were measured. The number of samples was 3, and relative TEER values of iBMECs induced and differentiated on FBN, VTN-N, LN221F, LN411F, or LN511F were determined based on the TEER values of iBMECs induced and differentiated on Matrigel (hereinafter, also referred to as “Matrigel-iBMECs”). […] The number of samples was set to 6, and the time-course change of the TEER values was determined. The TEER values were measured using a Millicell ERS-2 (chopstick type) according to the attached instructions. […]"}, "[3]": {"test_system": "iBMECs derived from 648A1 strain", "assay": "Time-course change in TEER values, 648A1 strain", "assay_type": "cell-based, human", "details": "FIG. 4", "protocol": "as §1, §2"}, "[4]": {"test_system": "iBMECs derived from 610B1 strain", "assay": "Test for permeability of FD4 or LY, 610B1 strain", "assay_type": "cell-based, human", "details": "60 minutes, day 10 of differentiation", "protocol": "(§3) FD4 or LY permeability was tested on Matrigel-iBMECs and LN221F-iBMECs derived from each of 610B1 or 648A1 strain. The number of samples was 6. On day 10 of differentiation, the culture medium was replaced with a transport buffer (HBSS containing 10 mM HEPES solution), and the cells were cultured at 37° C. for 20 minutes. The transport buffer containing 1 mg/mL FD4 or 300 μM LY was added to the apical side. After incubation at 37° C. for 60 minutes, 100 μL of the solution was collected from the basolateral side. The volume of transport buffer was 300 μL on the apical side and 800 μL on the basal side. The fluorescence intensity of FD4 or LY was measured with a Synergy HTX multimode plate reader and analyzed by Gen5 data analysis software."}, "[5]": {"test_system": "iBMECs derived from 648A1 strain", "assay": "Test for permeability of FD4 or LY, 648A1 strain", "assay_type": "cell-based, human", "details": "60 minutes, day 10 of differentiation", "protocol": "as §3"}, "[6]": {"test_system": "iBMECs derived from strain 610B1", "assay": "Analysis of expression levels of BMEC marker genes by RT-q PCR", "assay_type": "cell-based, human", "details": "CDHS, MDR1, BCRP, ZO-1, Occludin, GLUT1, LAT1; day 10 of differentiation, corrected with HPRT1, FIG. 7", "protocol": "Extraction was performed according to the attached instructions of Agencourt (registered trademark) RNAdvance Tissue Kit.\nComplementary DNA (cDNA) was synthesized using ReverTra Ace (registered trademark) qPCR RT Master Mix according to the attached instructions.\nThe levels of gene expression in Matrigel-iBMECs or LN221F-iBMECs derived from strain 610B1 (on day 10 of differentiation) or human-derived primary BMECs (hereinafter, also referred to as “hBMECs”) were analyzed by RT-q PCR. The number of samples for Matrigel-iBMECs or LN221F-iBMECs was 3, and the number of samples for hBMECs was 1. RT-q PCR was performed with KAPA SYBR Fast qPCR Kit while using cDNA as a template according to the attached instructions. The results obtained were corrected using HPRT1 as an internal control. The relative expression levels of mRNA in LN221F-iBMECs or hBMECs were determined based on the expression levels of mRNA in Matrigel-iBMECs. […]"}, "[7]": {"test_system": "iBMECs derived from 610B1 strain", "assay": "Protein expression of BMEC markers by immunostaining", "assay_type": "cell-based, human", "details": "CDH5, P-gp, BCRP, ZO-1, Occludin, Claudin 5; day 10 of differentiation, FIG. 8", "protocol": "Matrigel-iBMECs or LN221F-iBMECs (on day 10 of differentiation) derived from 610B1 strain were analyzed by immunostaining in order to analyze the expression levels and localizations of BMEC marker proteins. For Zonula Occludens-1 (ZO-1) and Occludin, the cells on a 96-well plate were fixed in 4 w/v % paraformaldehyde for 15 minutes at room temperature, washed twice with glycine-containing PBS, and then permeabilized with 0.1 w/v % Triton X-100-containing PBS for 25 minutes at room temperature. After blocking for 20 min at room temperature with 5% donkey serum, each primary antibody was used for reaction for 2 hours at room temperature. After washed three times with PBS, the cells were reacted with the secondary antibody, which had been diluted 200-fold, for 60 minutes at room temperature. At this time, 1 μg/mL DAPI as a nuclear staining reagent was mixed in the reaction at the same time. Thereafter, the cells were washed three times with PBS, and were analyzed with an Operetta high content imaging system. […]"}, "P-gp": {"biological_target": "T1, P-gp (Homo sapiens, UniProt P08183)", "T1 construct": "endogenous in cells; host or cells: Matrigel-iBMECs or LN221F-iBMECs derived from 610B1 strain (iPS cells), day 10 of differentiation", "T1 sequence (P08183 whole entry)": "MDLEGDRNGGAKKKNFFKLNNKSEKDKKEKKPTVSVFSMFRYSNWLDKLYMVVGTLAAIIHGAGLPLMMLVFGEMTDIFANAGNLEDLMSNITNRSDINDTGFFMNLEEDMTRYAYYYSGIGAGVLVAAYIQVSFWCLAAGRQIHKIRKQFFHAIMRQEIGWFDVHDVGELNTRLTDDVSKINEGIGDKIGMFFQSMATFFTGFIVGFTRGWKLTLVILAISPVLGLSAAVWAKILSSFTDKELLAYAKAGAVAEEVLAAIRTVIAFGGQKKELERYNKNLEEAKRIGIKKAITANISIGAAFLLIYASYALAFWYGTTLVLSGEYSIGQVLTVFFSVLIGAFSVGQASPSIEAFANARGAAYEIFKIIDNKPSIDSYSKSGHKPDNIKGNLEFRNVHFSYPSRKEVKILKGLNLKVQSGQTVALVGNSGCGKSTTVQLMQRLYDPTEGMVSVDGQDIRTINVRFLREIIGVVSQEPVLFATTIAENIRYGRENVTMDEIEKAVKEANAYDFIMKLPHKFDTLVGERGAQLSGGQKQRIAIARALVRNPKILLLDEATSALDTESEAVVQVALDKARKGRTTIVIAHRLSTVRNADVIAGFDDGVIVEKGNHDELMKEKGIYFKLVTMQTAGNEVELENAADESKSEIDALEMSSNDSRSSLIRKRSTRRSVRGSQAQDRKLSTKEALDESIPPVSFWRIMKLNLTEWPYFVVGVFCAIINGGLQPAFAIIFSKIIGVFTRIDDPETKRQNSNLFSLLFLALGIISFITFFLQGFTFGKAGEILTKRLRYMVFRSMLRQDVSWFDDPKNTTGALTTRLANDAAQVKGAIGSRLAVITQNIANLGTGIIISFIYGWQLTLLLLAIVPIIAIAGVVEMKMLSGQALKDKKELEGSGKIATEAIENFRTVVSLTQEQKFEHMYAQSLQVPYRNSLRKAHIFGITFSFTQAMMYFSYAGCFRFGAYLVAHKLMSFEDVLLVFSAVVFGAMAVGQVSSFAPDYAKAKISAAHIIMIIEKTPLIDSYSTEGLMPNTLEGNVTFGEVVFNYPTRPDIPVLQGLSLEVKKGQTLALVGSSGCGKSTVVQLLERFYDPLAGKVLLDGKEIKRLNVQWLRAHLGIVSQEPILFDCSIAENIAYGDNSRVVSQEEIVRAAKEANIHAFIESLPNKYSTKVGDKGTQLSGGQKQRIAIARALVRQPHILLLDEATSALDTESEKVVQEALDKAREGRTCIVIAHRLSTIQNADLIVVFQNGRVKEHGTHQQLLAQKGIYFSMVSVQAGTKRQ", "assay": "Substrate uptake test, P-gp function (rhodamine 123 with or without cyclosporine A)", "assay_type": "cell-based", "details": "10 μM rhodamine 123, 10 μM cyclosporine A, 60 minutes at 37° C., FIG. 9", "protocol": "(§4) For functional analysis of P-gp and BCRP as efflux transporters, Matrigel-iBMECs or LN221F-iBMECs (on day 10 of differentiation) derived from 610B1 strain were tested for substrate uptake. As the substrate, rhodamine 123 or Hoechst 33342 was used. The culture medium was removed and the cells on a 96-well plate were pre-incubated in a transport buffer for 15 minutes at 37° C. Note that the number of samples was 6. The cells were incubated, in the presence or absence of 10 μM cyclosporine A (CsA), an inhibitor of P-gp, or 20 μM Ko 143, an inhibitor of BCRP, in a transport buffer containing 10 μM rhodamine 123 or 10 μM Hoechst 33342 for 60 minutes at 37° C. The cells were then washed three times with PBS and lysed in PBS containing 5 w/v % Triton X-100. The fluorescence intensities of rhodamine 123 or Hoechst 33342 were measured with a Synergy HTX multimode plate reader and analyzed by Gen5 data analysis software."}, "BCRP": {"biological_target": "T2, BCRP (Homo sapiens, UniProt Q9UNQ0)", "T2 construct": "endogenous in cells; host or cells: Matrigel-iBMECs or LN221F-iBMECs derived from 610B1 strain (iPS cells), day 10 of differentiation", "T2 sequence (Q9UNQ0 1-655)": "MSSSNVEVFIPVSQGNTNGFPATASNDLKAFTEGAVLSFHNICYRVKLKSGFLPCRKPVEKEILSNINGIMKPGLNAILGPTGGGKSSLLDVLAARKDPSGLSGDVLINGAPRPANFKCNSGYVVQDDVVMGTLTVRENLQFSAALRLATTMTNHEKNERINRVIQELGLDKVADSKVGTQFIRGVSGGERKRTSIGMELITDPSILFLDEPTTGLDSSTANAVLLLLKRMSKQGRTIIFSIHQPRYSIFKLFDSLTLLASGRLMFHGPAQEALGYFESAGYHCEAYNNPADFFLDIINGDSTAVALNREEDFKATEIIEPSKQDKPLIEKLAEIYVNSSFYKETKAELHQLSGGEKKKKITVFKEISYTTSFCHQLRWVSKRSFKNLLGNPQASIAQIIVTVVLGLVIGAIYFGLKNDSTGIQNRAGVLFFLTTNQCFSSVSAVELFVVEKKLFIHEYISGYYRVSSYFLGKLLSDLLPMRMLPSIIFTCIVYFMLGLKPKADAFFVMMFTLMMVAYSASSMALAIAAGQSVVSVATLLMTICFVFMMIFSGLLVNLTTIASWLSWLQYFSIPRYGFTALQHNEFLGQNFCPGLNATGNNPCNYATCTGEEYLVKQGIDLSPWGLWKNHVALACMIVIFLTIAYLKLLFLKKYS", "assay": "Substrate uptake test, BCRP function (Hoechst 33342 with or without Ko 143)", "assay_type": "cell-based", "details": "10 μM Hoechst 33342, 20 μM Ko 143, 60 minutes at 37° C., FIG. 10", "protocol": "as §4"}}, "data": [{"substance": "Laminin-221 fragment [LN221F]", "values": [{"measurement": "relative TEER value (Matrigel-iBMECs set to 1.0)", "setting": "[1]; FIG. 2", "value": "about 2 times"}, {"measurement": "TEER value compared with iBMECs induced and differentiated on Matrigel", "setting": "[1]", "value": "higher TEER value"}, {"measurement": "TEER value compared with Matrigel-iBMECs over a long period of time", "setting": "[2]; day 1 to day 10 after seeding", "value": "higher TEER value"}, {"measurement": "TEER value", "setting": "[2]; over a long period of time", "value": "≥ 1000 Ω×cm^2"}, {"measurement": "TEER value compared with Matrigel-iBMECs over a long period of time", "setting": "[3]; day 1 to day 10 after seeding", "value": "higher TEER value"}, {"measurement": "TEER value", "setting": "[3]; over a long period of time", "value": "≥ 1000 Ω×cm^2"}, {"measurement": "permeability coefficient of LY compared with Matrigel-iBMECs", "setting": "[4]; 300 μM LY apical, FIG. 6", "value": "lower permeability coefficient"}, {"measurement": "permeability coefficient of FD4 compared with Matrigel-iBMECs", "setting": "[4]; 1 mg/mL FD4 apical, FIG. 5", "value": "lower permeability coefficient"}, {"measurement": "permeability coefficient of LY compared with Matrigel-iBMECs", "setting": "[5]; 300 μM LY apical, FIG. 6", "value": "lower permeability coefficient"}, {"measurement": "permeability coefficient of FD4 compared with Matrigel-iBMECs", "setting": "[5]; 1 mg/mL FD4 apical, FIG. 5", "value": "lower permeability coefficient"}, {"measurement": "mRNA expression level of BMEC markers compared with Matrigel-iBMECs", "setting": "[6]", "value": "almost equivalent"}, {"measurement": "protein expression levels and localizations of BMEC markers compared with Matrigel-iBMECs", "setting": "[7]", "value": "almost equivalent"}, {"measurement": "accumulation of substrate in the presence of the inhibitor versus absence (P-gp function)", "setting": "P-gp", "value": "larger"}, {"measurement": "accumulation of substrate in the presence of the inhibitor versus absence (BCRP function)", "setting": "BCRP", "value": "larger"}]}, {"substance": "N-terminal Vitronectin [VTN-N]", "values": [{"measurement": "TEER value compared with iBMECs induced and differentiated on Matrigel", "setting": "[1]", "value": "higher TEER value"}]}]}
